{"source": "patent US20130011845A1", "about": "“MICRORNA REGULATING THE INSULIN SIGNALING PATHWAY, AND METHOD FOR SCREENING MATERIAL FOR CONTROLLING THE ACTION OF A TARGET THEREOF” (SNU R & DB Foundation, priority 2009, published 2013)", "type_in_all_cases": "cell-based", "key": {"[1]": {"test_system": "ush 3′UTR", "assay": "dual-luciferase 3′UTR reporter assay, pAC-ush", "conditions": "luciferase reporter with ush 3′UTR, drosophila S2 cell lines; average of at least two independent experiments", "protocol": "(§1) In order to determine whether the target genes identified in Example 7 are in actuality targets of miR-8 and miR-200 family miRNAs, the inventors performed cloning. In other words, they inserted a luciferase gene into downstream of each target gene's 3′UTR containing the miRNA target sites. Specifically, in order to obtain cDNAs of respective target genes, from drosophila S2 cell lines or human Hela cell lines, total RNA was extracted by using RNeasy mini kit (QIAGEN, US). 1 μg of total RNA and 1 μl of Oligo-dT (Invitrogen, US) were charged with up to 50 μl of distilled water, and placed into SuperScript First-Strand Synthesis System (Invitrogen, US), followed by RT-PCR reaction. Through the reaction at 65° C. for 6 min, at 4° C. for 5 min, at 42° C. for 60 min, at 95° C. for 5 min, and at 4° C. for 5 min, cDNA was synthesized. […]\n(§2) Reporter plasmids and renilla luciferase expression vectors (Promega, US), as noted in Table 4, and miRNAs of miR-200 family of miR-141, miR-200a (hsa-miR-200a, SEQ ID: 87: 5′-[…]-3′), miR-200b, miR-200c (has-miR-200c, SEQ ID: 88: 5′-[…]-3′) and miR-429, and miR-8 (dme-miR-8, SEQ ID: 89: 5′-[…]-3′) were bought from Samchonri and cotransfected into drosophila S2 cell lines or human Hela cell lines. Then, the activities of luciferase were measured through dual-luciferase assay (Promega, US) by a luminometer (Biorad). […]"}, "[2]": {"test_system": "Lap1 3′UTR", "assay": "dual-luciferase 3′UTR reporter assay, pAC-Lap1", "conditions": "luciferase reporter with Lap1 3′UTR, drosophila S2 cell lines; average of at least two independent experiments", "protocol": "as §1, §2"}, "[3]": {"test_system": "CG8445 3′UTR", "assay": "dual-luciferase 3′UTR reporter assay, pAC-CG8445", "conditions": "luciferase reporter with CG8445 3′UTR, drosophila S2 cell lines; average of at least two independent experiments", "protocol": "as §1, §2"}, "[4]": {"test_system": "dbo 3′UTR", "assay": "dual-luciferase 3′UTR reporter assay, pAC-dbo", "conditions": "luciferase reporter with dbo 3′UTR, drosophila S2 cell lines; average of at least two independent experiments", "protocol": "as §1, §2"}, "[5]": {"test_system": "Lar 3′UTR", "assay": "dual-luciferase 3′UTR reporter assay, pAC-Lar", "conditions": "luciferase reporter with Lar 3′UTR, drosophila S2 cell lines; average of at least two independent experiments", "protocol": "as §1, §2"}, "[6]": {"test_system": "Ced-12 3′UTR", "assay": "dual-luciferase 3′UTR reporter assay, pAC-Ced-12", "conditions": "luciferase reporter with Ced-12 3′UTR, drosophila S2 cell lines; average of at least two independent experiments", "protocol": "as §1, §2"}, "[7]": {"test_system": "CG12333 3′UTR", "assay": "dual-luciferase 3′UTR reporter assay, pAC-CG12333", "conditions": "luciferase reporter with CG12333 3′UTR, drosophila S2 cell lines; average of at least two independent experiments", "protocol": "as §1, §2"}, "[8]": {"test_system": "ebf 3′UTR", "assay": "dual-luciferase 3′UTR reporter assay, ebf", "conditions": "luciferase reporter with ebf 3′UTR, drosophila S2 cell lines; average of at least two independent experiments", "protocol": "as §1, §2"}}, "data": [{"substance": "5′-UAAUACUGUCAGGUAAAGAUGUC-3′ (listed as RNA, chemistry not given here) [miR-8]", "values": [{"measurement": "Repression fold, ush", "setting": "[1]", "result": 0.71, "unit": "fold"}, {"measurement": "Repression fold, Lap1", "setting": "[2]", "result": 0.46, "unit": "fold"}, {"measurement": "Repression fold, CG8445", "setting": "[3]", "result": 0.43, "unit": "fold"}, {"measurement": "Repression fold, dbo", "setting": "[4]", "result": 0.54, "unit": "fold"}, {"measurement": "Repression fold, Lar", "setting": "[5]", "result": 0.42, "unit": "fold"}, {"measurement": "Repression fold, Ced-12", "setting": "[6]", "result": 0.51, "unit": "fold"}, {"measurement": "Repression fold, CG12333", "setting": "[7]", "result": 0.59, "unit": "fold"}, {"measurement": "Repression fold, ebf", "setting": "[8]", "result": 0.75, "unit": "fold"}]}]}
